Measurements published in patent US9428476B2, “S-imino-S-oxo-iminothiadiazine compounds as BACE inhibitors, compositions, and their use” (Merck Sharp & Dohme Corp., priority 2013, dated 2016).

Key:
[1] = biological target: soluble human BACE1 catalytic domain (Homo sapiens (Human), UniProt P56817); assay: BACE1 HTRF FRET Assay; format: biochemical; details: Ki calculated from IC50 using the Cheng-Prusoff equation; QSY7-APPswe-Eu substrate, pH 5.0
Excerpt: Na^+-Acetate pH 5.0; 1% Brij-35; Glycerol; Dimethyl Sulfoxide (DMSO); Recombinant human soluble BACE1 catalytic domain (>95% pure); APP Swedish mutant peptide substrate (QSY7-APP^swe-Eu): QSY7-EISEVNLDAEFC-Europium-amide.
A homogeneous time-resolved FRET assay can be used to determine IC50 values for inhibitors of the soluble human BACE1 catalytic domain. This assay monitors the increase of 620 nm fluorescence that resulted from BACE1 cleavage of an APPswedish APP^swe mutant peptide FRET substrate (QSY7-EISEVNLDAEFC-Europium-amide). This substrate contains an N-terminal QSY7 moiety that serves as a quencher of the C-terminal Europium fluorophore (620 nm Em). In the absence of enzyme activity, 620 nm fluorescence is low in the assay and increased linearly over 3 hours in the presence of uninhibited BACE1 enzyme Inhibition of BACE1 cleavage of the QSY7-APP^swe-Eu substrate by inhibitors is manifested as a suppression of 620 nm fluorescence.
Varying concentrations of inhibitors at 3× the final desired concentration in a volume of 10 ul are preincubated with purified human BACE1 catalytic domain (3 nM in 10 μl) for 30 minutes at 30° C. in reaction buffer containing 20 mM Na-Acetate pH 5.0, 10% glycerol, 0.1% Brij-35 and 7.5% DSMO. […]

[2] = biological target: purified human autoBACE-2 (Homo sapiens (Human), UniProt Q9Y5Z0); assay: BACE-2 Assay (BACE-HTRF assay); format: biochemical; details: Ki calculated from IC50 using the Cheng-Prusoff equation; QSY7-EISEVNLDAEFC-Eu-amide substrate, pH 5.0; read-out: BACE2 Ki
Method: Inhibitor IC50s at purified human autoBACE-2 are determined in a time-resolved endpoint proteolysis assay that measures hydrolysis of the QSY7-EISEVNLDAEFC-Eu-amide FRET peptide substrate (BACE-HTRF assay). BACE-mediated hydrolysis of this peptide results in an increase in relative fluorescence (RFU) at 620 nm after excitation with 320 nm light Inhibitor compounds, prepared at 3× the desired final concentration in 1×BACE assay buffer (20 mM sodium acetate pH 5.0, 10% glycerol, 0.1% Brij-35) supplemented with 7.5% DMSO are pre-incubated with an equal volume of autoBACE-2 enzyme diluted in 1×BACE assay buffer (final enzyme concentration 1 nM) in black 384-well NUNC plates for 30 minutes at 30° C. […] Following laser excitation of sample wells at 320 nm, the fluorescence signal at 620 nm is collected for 400 ms following a 50 μs delay on a RUBYstar HTRF plate reader (BMG Labtechnologies). […] IC50, are determined by nonlinear regression analysis (sigmoidal dose response, variable slope) of percent inhibition data with minimum and maximum values set to 0 and 100 percent respectively. […] The Ki values are calculated from the IC50 using the Cheng-Prusoff equation.

Sequence of purified human autoBACE-2 (Q9Y5Z0 63-473 limits assumed): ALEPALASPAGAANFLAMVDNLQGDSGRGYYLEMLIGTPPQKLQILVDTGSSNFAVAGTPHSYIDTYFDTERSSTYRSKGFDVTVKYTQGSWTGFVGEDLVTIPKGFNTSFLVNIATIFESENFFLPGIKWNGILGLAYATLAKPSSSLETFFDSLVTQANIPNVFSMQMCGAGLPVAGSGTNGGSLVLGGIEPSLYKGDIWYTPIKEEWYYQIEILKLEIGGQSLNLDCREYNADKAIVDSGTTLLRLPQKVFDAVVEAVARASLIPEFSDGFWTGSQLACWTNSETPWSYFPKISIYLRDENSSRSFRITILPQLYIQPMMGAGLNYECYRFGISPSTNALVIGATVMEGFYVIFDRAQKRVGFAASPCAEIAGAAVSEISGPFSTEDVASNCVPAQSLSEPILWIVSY
Sequence of soluble human BACE1 catalytic domain (P56817 75-416): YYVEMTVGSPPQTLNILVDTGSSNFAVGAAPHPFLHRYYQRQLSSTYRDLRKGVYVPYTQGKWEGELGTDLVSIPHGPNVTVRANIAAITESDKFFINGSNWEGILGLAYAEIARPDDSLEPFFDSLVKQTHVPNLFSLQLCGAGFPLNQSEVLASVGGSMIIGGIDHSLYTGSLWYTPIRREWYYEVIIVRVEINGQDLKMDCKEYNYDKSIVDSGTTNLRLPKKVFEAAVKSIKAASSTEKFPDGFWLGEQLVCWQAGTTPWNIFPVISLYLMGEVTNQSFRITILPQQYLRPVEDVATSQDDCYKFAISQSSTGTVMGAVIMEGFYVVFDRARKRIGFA

Row | Ki [1] [nM] | Ki [2] [nM] | SMILES
1 | 8 | 3 | CCN=S1(=O)C[C@@](C)(c2cc(NC(=O)c3ccc(Cl)cn3)ccc2F)NC(=N)N1C (stereo partly shown) [Example 5]
2 | 10 | 3 | CCN1C(=N)N[C@](C)(c2cc(NC(=O)c3ccc(Cl)cn3)ccc2F)CS1(=O)=NC (stereo partly shown) [Example 6]
